From patent EP2948433B1, “ATGLISTATIN AS LIPASE INHIBITOR” (Technische Universität Graz, priority 2013, dated 2014)

Experiments:
WAT organ cultures = experiment: Lipolysis of isolated WAT organ cultures; type: cell-based, C57BI6 mice; conditions: 8 h incubation
Method: • Figure 1. Structure of compounds 1 to 3 (reference) and compound 4 (atglistatin) and effect on ATGL activity. For determination of lipase activity, lysates of E. coli overexpressing recombinant strep-tagged ATGL and CGI-58 were incubated with a substrate containing radiolabeled [9,10-3H(N)]-triolein. Subsequently, FA were extracted and quantified by liquid scintillation counting. Lysates of cells expressing empty vector were set as blank. Inhibitors were solubilized in DMSO and added at the indicated concentrations. DMSO alone was used as negative control. (A) Structure and IC50 values of compounds 1-4. (B) Dose-dependent inhibition of ATGL in the presence of compound 3 and 4. […] (C) Lineweaver-Burk plots for kinetic analysis of ATGL inhibition. Experiments were performed at varying concentrations of substrate (0.05 - 3 mM) in presence and absence of compound 4 (Atglistatin). […] Data are presented as mean +/-S.D. of triplicate determinations. Data for compound 4 are representative for at least three independent experiments. • Figure 2. Selectivity of Atglistatin. Lipase activity of ATGL, HSL, lipoprotein lipase, and pancreatic lipase was determined using triolein as substrate. MGL activity was detected in the presence of rac-(1,3)-monooleoylglycerol as substrate. Inhibitors were solubilized in DMSO and added at the indicated concentrations. DMSO alone was used as negative control. (A) Dose-dependent inhibition of TG hydrolase activity in WAT lysates obtained from wild-type and ATGL-ko mice. (B) Inhibition of TG hydrolase activity in wild-type WAT lysates by Atglistatin (40 µM) and by the HSL inhibitor Hi 76-0079 (20 µM). (C) Effect of Atglistatin on murine MGL (purified from E. coli), and murine HSL (overexpressed in COS-7 lysates) activity. […] The release of FA (A) and glycerol (B) in the media was determined using commercial kits. […] At the indicated timepoints blood was taken retroorbitally and plasma parameters were measured using commercial kits. […] 8 h after gavage blood was taken retroorbitally and plasma parameters were measured using commercial kits. […]

[1] = Tissue TG content after oral gavage in fasted mice; type: in vivo, C57BI6 mice
Method: Animals. Mice (C57BI/6J) were maintained on a regular light-dark cycle (14 hours light, 10 hours dark) and kept on a standard laboratory chow diet (4.5% wt/wt fat, Sniff GMBH Germany). Maintenance, handling, and tissue collection from mice has been approved by the Austrian Federal Ministry of Science and Research Education and by the ethics committee of the University of Graz. Atglistatin was orally administrated by gavage of 200 µl olive oil containing Atglistatin.
Determination of tissue TG content. For tissue collection mice were euthanized by cervical dislocation. Subsequently, tissues were excised and snap frozen. After homogenisation in buffer A without DTT, TG was measured using TG reagent (Thermo Electron Corp., Victoria, Australia).
Table 1. Inhibition of lipolysis in vivo. C57BI6 mice were fasted overnight and received an oral gavage containing 200 µmol/kg Atglistatin dissolved in olive oil, or olive oil as control. After 8 h blood was taken retroorbitally and mice were sacrificed. (A) Plasma parameters were measured using commercial kits. (B) Tissue triglyceride (TG) and protein levels were determined in whole tissue lysates and are presented as TG (nmol) per protein (mg). Data are presented as mean + S.D. (*, p < 0.05 **, p < 0.01; ***, p < 0.001). n = 7

purified bovine LPL = target: T1, purified bovine LPL (Bos taurus, UniProt P11151); experiment: Lipoprotein lipase activity, purified enzyme, triolein substrate; type: biochemical; conditions: Fig. 2D
T1 construct: purchased Sigma
T1 sequence (P11151 29-478): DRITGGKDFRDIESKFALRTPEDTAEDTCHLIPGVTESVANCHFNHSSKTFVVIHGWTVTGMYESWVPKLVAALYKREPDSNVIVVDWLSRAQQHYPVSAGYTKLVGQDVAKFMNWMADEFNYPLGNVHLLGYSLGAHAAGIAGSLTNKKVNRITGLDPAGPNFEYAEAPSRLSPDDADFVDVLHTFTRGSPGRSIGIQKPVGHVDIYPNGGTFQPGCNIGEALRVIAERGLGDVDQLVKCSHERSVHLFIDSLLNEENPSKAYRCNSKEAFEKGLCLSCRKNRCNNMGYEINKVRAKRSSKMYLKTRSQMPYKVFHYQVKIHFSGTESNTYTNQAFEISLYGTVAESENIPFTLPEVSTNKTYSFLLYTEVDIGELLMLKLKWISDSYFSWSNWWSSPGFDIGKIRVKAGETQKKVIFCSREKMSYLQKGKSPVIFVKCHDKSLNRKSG
Method: • Figure 1. Structure of compounds 1 to 3 (reference) and compound 4 (atglistatin) and effect on ATGL activity. For determination of lipase activity, lysates of E. coli overexpressing recombinant strep-tagged ATGL and CGI-58 were incubated with a substrate containing radiolabeled [9,10-3H(N)]-triolein. Subsequently, FA were extracted and quantified by liquid scintillation counting. Lysates of cells expressing empty vector were set as blank. Inhibitors were solubilized in DMSO and added at the indicated concentrations. DMSO alone was used as negative control. (A) Structure and IC50 values of compounds 1-4. (B) Dose-dependent inhibition of ATGL in the presence of compound 3 and 4. […] (C) Lineweaver-Burk plots for kinetic analysis of ATGL inhibition. Experiments were performed at varying concentrations of substrate (0.05 - 3 mM) in presence and absence of compound 4 (Atglistatin). […] Lipase activity of ATGL, HSL, lipoprotein lipase, and pancreatic lipase was determined using triolein as substrate. MGL activity was detected in the presence of rac-(1,3)-monooleoylglycerol as substrate. […] The release of FA (A) and glycerol (B) in the media was determined using commercial kits. […] At the indicated timepoints blood was taken retroorbitally and plasma parameters were measured using commercial kits. […] 8 h after gavage blood was taken retroorbitally and plasma parameters were measured using commercial kits. […]

SMILES: CN(C)C(=O)Nc1cccc(-c2ccc(N(C)C)cc2)c1 [Atglistatin, atglistatin]
- basal lipolysis (WAT organ cultures; dose dependent (0-50 µM)): reduced basal lipolysis
- reduction of forskolin-stimulated FA release (WAT organ cultures; up to, 10 µM forskolin): up to 72%
- reduction of forskolin-stimulated glycerol release (WAT organ cultures; up to, 10 µM forskolin): ≤ 66%
- Tissue triglyceride (TG), skeletal muscle ([1]; 200 µmol/kg oral gavage, after 8 h, mean ± S.D., n = 7): 99 ± 13 nmol TG /mg protein
- accumulation of TG in cardiac muscle and other tissues ([1]; mouse, in vivo): did not promote the accumulation of TG
- effect on lipoprotein lipase (purified bovine LPL): only minor effects
